Key:
Type in all cases: in vivo, mouse
[1] = tested on: lung mitochondrial non-heme iron; test: Lung mitochondrial non-heme iron in CS-exposed mice; conditions: WT mice, CS 6 or 8 weeks, DFP after 4 weeks of CS, versus CS without DFP; FIG. 6e
Description: In vivo CS exposures, chemical treatments and diet modifications. Age- and sex-matched mice, starting at 6-12 weeks of age, were selected at random and exposed to total body CS in a stainless steel chamber using a whole-body smoke exposure device (Model TE-10 Teague Enterprises) for 2 hours per day, 5 days per week for 4 weeks or 4-6 months. Age-matched male and female mice were used for all CS exposures. Mice were exposed to CS (mainstream and side stream smoke) from 100 3R4F cigarettes (University of Kentucky), which correlated to an average total particulate matter (TPM) of 150 mg/m^3. For animals subjected to cigarette smoke exposure, early death was used as an exclusion criterion. […]
(§1) Mice exposed to CS for 4 weeks had modifications to their dietary iron as follows: Diet 1 (Control Diet) from Harlan Laboratories (TD.94045 AIN-93G), which contained 300-ppm iron. […] Animals were weighed weekly and the quantity of chow consumed was recorded compared to mice on a normal iron diet. […] Animals were checked daily and the quantity of water consumed compared to control mice. […]
Measurement of mitochondrial membrane potential and Cytochrome C oxidase activity. Mitochondrial-enriched fractions were isolated from the lungs of mice and JC1 uptake measured using the MITOISO1 mitochondrial isolation kit (Sigma Aldrich). […]

mice exposed to CS [2] = test: BAL leukocyte counts, BALF protein and IL-33/IL-6 ELISA in CS-induced pulmonary inflammation and injury; conditions: WT mice, 4 weeks CS then DFP during additional 2 or 4 weeks of CS, versus CS without DFP
Description: (§2) In vivo CS exposures, chemical treatments and diet modifications. Age- and sex-matched mice, starting at 6-12 weeks of age, were selected at random and exposed to total body CS in a stainless steel chamber using a whole-body smoke exposure device (Model TE-10 Teague Enterprises) for 2 hours per day, 5 days per week for 4 weeks or 4-6 months. Age-matched male and female mice were used for all CS exposures. Mice were exposed to CS (mainstream and side stream smoke) from 100 3R4F cigarettes (University of Kentucky), which correlated to an average total particulate matter (TPM) of 150 mg/m^3. For animals subjected to cigarette smoke exposure, early death was used as an exclusion criterion. At the end of the exposure regimen, mice were euthanized by CO2 narcosis, the tracheas cannulated and the lungs inflated with PBS at 25 cm of H2O pressure. The left lung was tied off with a suture, dissected and flash frozen and the right lung fixed in 4% formalin at 4° C. overnight. A proximal portion of the left lung (4 month exposures only) was fixed for transmission electron microscopy (TEM) analysis.
Mice exposed to CS for 4 weeks had modifications to their dietary iron as follows: Diet 1 (Control Diet) from Harlan Laboratories (TD.94045 AIN-93G), which contained 300-ppm iron. Diet 2 (iron deficient diet) from Harlan Laboratories (TD.10210), which contained 2-6 ppm iron. Diet 3 (iron replete Diet) from Harlan Laboratories (TD.10213), which contained 2% carbonyl iron. Iron diets were exchanged for normal diets upon weaning at 3 weeks of age and used throughout the smoke exposures. Animals were weighed weekly and the quantity of chow consumed was recorded compared to mice on a normal iron diet. Deferiprone or FERRIPROX® solution (1mg/m1) (ApoPharma Inc.) was administered prophylactically in the animals' drinking water for the duration of smoke exposure. Deferiprone was also administered therapeutically in the animals' drinking water initiating therapy after 4 weeks of smoke exposure and continuing therapy for an additional 2-4 weeks. Animals were checked daily and the quantity of water consumed compared to control mice. Water solutions were changed twice weekly.
BALF isolation, cell counts and ELISA. Mice were euthanized by CO2 narcosis, the tracheas cannulated and the lungs lavaged with 0.5 ml increments of ice-cold PBS eight times (4 ml total). BALF was centrifuged at 500×g for 5 minutes. […] The cell pellet was resuspended in 500 μl PBS and leukocytes were counted using a hemocytometer. […] The percentage of macrophages, lymphocytes and polymorphonuclear leukocytes (PMNs) were counted in a total of 300 cells, and absolute numbers of each leukocyte subset were calculated. […]

mice exposed to CS [3] = test: Weight gain of CS-exposed mice treated with DFP; conditions: WT mice, CS 6 or 8 weeks, DFP after 4 weeks of CS, versus CS without DFP; FIG. 6d
Description: as §2, with “A proximal portion of the left lung (4 month exposures only) was fixed for transmission electron microscopy (TEM) analysis.” left out
as §1

mice exposed to CS [4] = test: CS-induced impairment of mucociliary clearance (MCC), CS-induced bronchitis model
Description: as §2
as §1, with “300-ppm iron. Diet 2 (iron deficient diet) from Harlan Laboratories (TD.10210), which contained 2-6 ppm” for “300-ppm”
Assessment of Mucociliary Clearance. Mucociliary clearance was quantified using a non-invasive, oropharyngeal aspiration procedure (Lam et al., The Journal of clinical investigation 123(12), 5212-5230 (2013)). […] Whole mouse 3D μ- single-photon emission computed tomography (SPECT) images from 10 minute acquisitions at 0, 1, and 3 hour time points were obtained, reconstructed, blindly analyzed and expressed as the percent removed by mucociliary clearance. […]

## Cc1c(O)c(=O)ccn1C [DFP, Deferiprone]
[1]
  lung mitochondrial iron loading: lower lung mitochondrial iron loading
Mice exposed to CS [2]; FIG. 6f
  BAL total leukocyte counts (pulmonary inflammation): significant reductions
Mice exposed to CS [2]; FIG. 6g
  total BALF protein (acute lung injury): significant reductions
Mice exposed to CS [2]; FIG. 16e
  BALF IL-6 protein concentration (pulmonary inflammation): significant reductions
Mice exposed to CS [2]; FIG. 16d
  BALF IL-33 protein concentration (pulmonary inflammation): significant reductions
Mice exposed to CS [3]
  weight gain: improved weight gain
Mice exposed to CS [4]; DFP-treated Irp2-/- mice versus DFP or Irp2-/- alone, CS 1 month, FIG. 6c
  CS-induced MCC impairment, DFP combined with IRP2 deficiency: better protection from CS-induced MCC impairment than DFP or Irp2−/− alone
Mice exposed to CS [4]; prophylactic: DFP in drinking water for the duration of CS-exposure (1 month), WT mice, FIG. 6c
  CS-induced MCC impairment: protected mice from CS-induced MCC impairment
Mice exposed to CS [4]; summary statement, CS-exposed mice
  experimental COPD (overall): alleviated experimental COPD

— patent US10905682B2, “Use of mitochondrial iron chelators for treatment of chronic obstructive pulmonary disease” (Cornell University, priority 2015, dated 2021)
